Reference: patent publication US20240181049A1, “HARNESSING THE POWER OF MICROBIOTA AND METABOLITES FOR THE TREATMENT OF CANCER” (UTI LIMITED PARTNERSHIP, priority 2019, published 2024)

Assays:
[1] = test system: A2AR-deficient CD4^+ T cells; assay: A2AR-deficient naive CD4+ T cells with anti-CD3/anti-CD28 coated beads; assay type: cell-based, mice
Procedure: FIG. 16A-16J: Context dependent effect of inosine on Th1 T cell differentiation. (a) Naïve CD4^+ T cells were co-cultured with bone marrow derived dendritic cells without IFN-γ. Quantification of T-bet^+CD3e^+CD4^+ T cells 48 hours after co-culture in the presence or absence of inosine and anti-CTLA-4, as indicated. (b) Naïve CD4^+ T cells were cultured anti-CD3/anti-CD28 coated beads at a ratio of 1:1 without IFN-γ for 48 hours. Representative plot and quantification of IL12Rβ2 surface expression on CD4^+ T cells in the presence or absence of inosine (left and right panel). (c) Quantification of T-bet^+CD3e^+CD4^+ T cells 48 hours after co-culture in the presence or absence of inosine, db-cAMP and anti-CTLA-4 as indicated. […] Quantification of T-bet^+CD3e^+CD4^+ T cells 48 hours after co-culture in the presence or absence of inosine or db-cAMP (e) Representative plot and quantification (left and right panel) of pCREB expression of anti-CD3/anti-CD28 bead co-cultured CD4^+ T cells in the presence or absence of inosine or db-cAMP 1 hour after stimulation. […] Il12rb2 and Ifng gene transcripts (normalized to Gapdh) were evaluated 24 and 48 hours following inosine (1 mM) stimulation. […] Analysis through quantitative PCR assay (h) Naïve CD4^+ T cells were cultured with anti-CD3/anti-CD28 coated beads at a ratio of 1:1 without IFN-γ for 24 hours. […]

[2] = test system: MC38-OVA cells; assay: T cell-mediated killing of inosine-pretreated MC38-OVA cells; assay type: cell-based; conditions: pretreatment of tumor cells prior to co-culture with activated tumor-specific T cells
Procedure: FIG. 17A-17B. […] (a) MC38 tumor cells were treated with the indicated doses of inosine in vitro for 72 hours. Cell death and survival was assessed through flow cytometry. (b) MC38 tumor cells expressing full length ovalbumin (MC38-OVA) were treated with the indicated doses of inosine in vitro for 72 hours. In parallel, OVA-specific naïve CD4 and CD8 T cells from spleens of OT-II and OT-I mice, respectively, were activated with anti-CD3/anti-CD28 beads and rmIL-2 (20 IU/ml) for 72 hours. Inosine was then washed away from conditioned MC38-OVA cells and fresh medium together with activated T cells were added (100,000 MC38-OVA cells+25,000 CD4 cells+25,000 CD8 cells). 72 hours later, cell death and survival of MC38-OVA cells was assessed through flow cytometry. Grey and black dash-dotted lines indicate MC38-OVA cell viability and death when co-cultured with naïve OVA-specific CD4 and CD8 T cells. Data are mean±SEM and pooled from two individual experiments. n=6 biological replicates/condition. #, & P<0.05, **, P<0.01; (**=0.0001 vs 10 mM, #0.001 vs 10 mM and & 1 vs 10 mM)

SMILES: OC[C@H]1O[C@@H](n2cnc3c(O)ncnc32)[C@H](O)[C@@H]1O [inosine]
- Th1 differentiation and phosphorylation of CREB [1]: absent
- T cell-mediated killing of tumor cells [2]: did not promote or inhibit T cell-mediated killing of tumor cells
